# In US12371428B2 (Exelixis, Inc., priority 2019, dated 2025):
# Like-named read-outs stand apart in the source and are kept apart here.
# Key:
# Assay type in all cases: cell-based
# [1] = molecular target: KDR (phospho-KDR, VEGF165-stimulated HUVEC cells) (Homo sapiens (Human), UniProt P35968); assay: KDR autophosphorylation ELISA in HUVEC cells (Example G); details: cellular activity; KDR autophosphorylation ELISA in HUVEC cells
# Experimental: Human umbilical vein endothelial cells or HUVEC (Lonza #C2519A) were seeded at 2×10^4 cells/well onto 96-well plates (Corning #3904), in EGM-2 growth medium (Lonza #CC-3162) containing 1% Penicillin Streptomycin (Thermo Fisher #15140-122). HUVEC cells were incubated at 37° C., 5% CO2 for 24 h and then starved for 24 h in serum-free EBM-2 basal medium (Lonza #CC-3156) containing 1% Penicillin Streptomycin. Test compounds were serially diluted to produce an 8-point dose curve in fresh serum-free medium to a final concentration of 0.3% DMSO (vehicle) and added to the cells and incubated for 1 h. Cells were then stimulated with 100 ng/mL recombinant human VEGF165 (R&D Systems #293-VE-500) for 5 min, washed with cold PBS, and immediately lysed with […] of cold 1× lysis buffer [20 mM Tris, 137 mM sodium chloride, 2 mM EDTA, 10% glycerol, 1% NP-40 alternative, 1 mM activated sodium orthovanadate, 1 mM PefaBloc SC (Sigma-Aldrich #11429868001), protease/phosphatase inhibitor tablet (Thermo Fisher #A32959)]. Lysates were collected and 100 μL/well added into the human phospho-KDR DuoSet IC ELISA (R&D Systems #DYC1766-2). Assay was performed according to manufacturer's instructions and sample phospho-KDR concentrations were extrapolated using human phospho-KDR control (R&D Systems #841421) as a standard. Positive control wells (100% activity) contained VEGF165-stimulated, DMSO-treated cell lysates. Negative control wells (0% activity) contained non-stimulated cell lysates. IC50 values were calculated by nonlinear regression analysis using a 4-parameter logistic curve fit in ActivityBase XE (IDBS).
# [2] = molecular target: Mer (phospho-Mer, MERTK-transfected 293A cells) (Homo sapiens (Human), UniProt Q12866); assay: Mer autophosphorylation ELISA in transient transfected 293A cells (Example H); details: cellular activity
# Experimental: 293A cells (Thermo Fisher #R70507) were seeded at 1.5×10^6 cells/well onto 100 mm dish (Greiner #664169), in DMEM (Thermo Fisher #11995-040) containing 10% FBS (Thermo Fisher #26140-079), 1% MEM NEAA (Thermo Fisher #11140-050), 1% GlutaMax (Thermo Fisher #35050-061), and 1% Penicillin Streptomycin (Thermo Fisher #15140-122). 293A cells were incubated at 37° C., 5% CO2 for 24 h and then transfected with […] MERTK DNA (Genecopoeia #EX-Z8208-M02) using TransIT LT1 transfection reagent (Mirus-Bio #MIR2305). After 24 h incubation, the transfected 293A cells were seeded at 1×10^5 cells/well onto 96-well plates (Corning #3904) in DMEM growth medium overnight. Test compounds were serially diluted to produce an 8-point dose curve in fresh serum-free medium to a final concentration of 0.3% DMSO (vehicle) and added to the cells and incubated for 1 h. Cells were then immediately lysed with 150 μL of cold 1× lysis buffer [20 mM Tris, 137 mM sodium chloride, 2 mM EDTA, 10% glycerol, 1% NP-40 alternative, 1 mM activated sodium orthovanadate, 1 mM PefaBloc SC (Sigma-Aldrich #11429868001), protease/phosphatase inhibitor tablet (Thermo Fisher #A32959)]. Lysates were clarified by centrifugation and 50 µL/well added in to the human phospho-Mer DuoSet IC ELISA (R&D Systems #DYC2579-2). Assay was performed according to manufacturer's instructions and sample phospho-Mer concentrations were extrapolated using human phospho-Mer control (R&D Systems #841793) as a standard. Positive control wells (100% activity) contained DMSO-treated cell lysates. Negative control wells (0% activity) contained reference inhibitor-treated cell lysates. IC50 values were calculated by nonlinear regression analysis using a 4-parameter logistic curve fit in ActivityBase XE (JDBS).
# [3] = molecular target: Met (phospho-Met, HGF-stimulated PC-3 prostate cancer cells) (Homo sapiens (Human), UniProt P08581); assay: Met autophosphorylation ELISA in PC-3 cells (Example F); details: cellular activity, read-out: c-Met IC50
# Experimental: PC-3 prostate cancer cells (ATCC #CRL-1435) were seeded at 4×10^4 cells/well onto 24-well plates (Greiner #662165), in DMEM (Thermo Fisher #11995-040) containing 10% FBS (Thermo Fisher #26140-079), 1% MEM NEAA (Thermo Fisher #11140-050), 1% GlutaMax (Thermo Fisher #35050-061), and 1% Penicillin Streptomycin (Thermo Fisher #15140-122). PC-3 cells were incubated at 37° C., 5% CO2 for 24 h and then starved for 3 h in serum-free medium. Test compounds were serially diluted to produce an 8-point dose curve in fresh serum-free medium to a final concentration of 0.3% DMSO (vehicle) and added to the cells and incubated for 1 h. Cells were then stimulated with 100 ng/mL recombinant human HGF (R&D Systems #294-HG-250) for 10 min, washed with cold PBS, and immediately lysed with […] of cold 1× lysis buffer [20 mM Tris, 137 mM sodium chloride, 2 mM EDTA, 10% glycerol, 1% NP-40 alternative, 1 mM activated sodium orthovanadate, 1 mM PefaBloc SC (Sigma-Aldrich #11429868001), protease/phosphatase inhibitor tablet (Thermo Fisher #A32959)]. Lysates were clarified by centrifugation and 100 μL/well added into the PathScan phospho-Met (panTyr) Sandwich ELISA (Cell Signaling Technology #7333). Assay was performed according to manufacturer's instructions. Positive control wells (100% activity) contained HGF-stimulated, DMSO-treated cell lysates. Negative control wells (0% activity) contained HGF-stimulated, reference inhibitor-treated cell lysates. IC50 values were calculated by nonlinear regression analysis using a 4-parameter logistic curve fit in ActivityBase XE (IDBS).
# [4] = Mer autophosphorylation ELISA in transient transfected 293A cells
# [5] = Met autophosphorylation ELISA in PC-3 cells
# Chain of Mer (phospho-Mer, MERTK-transfected 293A cells) (Q12866 21-999): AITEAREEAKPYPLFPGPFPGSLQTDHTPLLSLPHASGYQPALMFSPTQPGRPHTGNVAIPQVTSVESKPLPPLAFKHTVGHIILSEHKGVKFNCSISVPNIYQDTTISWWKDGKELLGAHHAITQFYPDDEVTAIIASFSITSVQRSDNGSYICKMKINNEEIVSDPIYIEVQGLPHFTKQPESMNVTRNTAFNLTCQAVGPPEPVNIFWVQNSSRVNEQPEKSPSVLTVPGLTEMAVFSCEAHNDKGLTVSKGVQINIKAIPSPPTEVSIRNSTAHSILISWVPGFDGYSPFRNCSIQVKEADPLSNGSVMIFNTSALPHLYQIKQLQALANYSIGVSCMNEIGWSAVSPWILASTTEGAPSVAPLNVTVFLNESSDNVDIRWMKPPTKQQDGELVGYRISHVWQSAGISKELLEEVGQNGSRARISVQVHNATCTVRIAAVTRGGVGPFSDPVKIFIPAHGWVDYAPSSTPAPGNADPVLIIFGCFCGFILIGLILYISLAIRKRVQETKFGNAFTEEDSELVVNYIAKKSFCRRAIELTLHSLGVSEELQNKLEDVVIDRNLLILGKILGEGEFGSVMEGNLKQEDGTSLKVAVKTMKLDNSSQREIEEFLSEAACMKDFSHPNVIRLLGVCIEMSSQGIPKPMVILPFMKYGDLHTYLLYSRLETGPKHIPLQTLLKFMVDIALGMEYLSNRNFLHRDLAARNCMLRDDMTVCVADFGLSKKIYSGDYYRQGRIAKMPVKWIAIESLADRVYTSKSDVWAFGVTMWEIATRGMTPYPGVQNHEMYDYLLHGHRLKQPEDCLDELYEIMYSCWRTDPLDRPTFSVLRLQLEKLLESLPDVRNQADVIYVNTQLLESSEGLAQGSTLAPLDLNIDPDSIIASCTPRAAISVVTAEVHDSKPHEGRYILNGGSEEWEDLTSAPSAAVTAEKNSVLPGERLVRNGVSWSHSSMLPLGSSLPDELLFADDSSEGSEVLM
# Chain of KDR (phospho-KDR, VEGF165-stimulated HUVEC cells) (P35968 20-1356): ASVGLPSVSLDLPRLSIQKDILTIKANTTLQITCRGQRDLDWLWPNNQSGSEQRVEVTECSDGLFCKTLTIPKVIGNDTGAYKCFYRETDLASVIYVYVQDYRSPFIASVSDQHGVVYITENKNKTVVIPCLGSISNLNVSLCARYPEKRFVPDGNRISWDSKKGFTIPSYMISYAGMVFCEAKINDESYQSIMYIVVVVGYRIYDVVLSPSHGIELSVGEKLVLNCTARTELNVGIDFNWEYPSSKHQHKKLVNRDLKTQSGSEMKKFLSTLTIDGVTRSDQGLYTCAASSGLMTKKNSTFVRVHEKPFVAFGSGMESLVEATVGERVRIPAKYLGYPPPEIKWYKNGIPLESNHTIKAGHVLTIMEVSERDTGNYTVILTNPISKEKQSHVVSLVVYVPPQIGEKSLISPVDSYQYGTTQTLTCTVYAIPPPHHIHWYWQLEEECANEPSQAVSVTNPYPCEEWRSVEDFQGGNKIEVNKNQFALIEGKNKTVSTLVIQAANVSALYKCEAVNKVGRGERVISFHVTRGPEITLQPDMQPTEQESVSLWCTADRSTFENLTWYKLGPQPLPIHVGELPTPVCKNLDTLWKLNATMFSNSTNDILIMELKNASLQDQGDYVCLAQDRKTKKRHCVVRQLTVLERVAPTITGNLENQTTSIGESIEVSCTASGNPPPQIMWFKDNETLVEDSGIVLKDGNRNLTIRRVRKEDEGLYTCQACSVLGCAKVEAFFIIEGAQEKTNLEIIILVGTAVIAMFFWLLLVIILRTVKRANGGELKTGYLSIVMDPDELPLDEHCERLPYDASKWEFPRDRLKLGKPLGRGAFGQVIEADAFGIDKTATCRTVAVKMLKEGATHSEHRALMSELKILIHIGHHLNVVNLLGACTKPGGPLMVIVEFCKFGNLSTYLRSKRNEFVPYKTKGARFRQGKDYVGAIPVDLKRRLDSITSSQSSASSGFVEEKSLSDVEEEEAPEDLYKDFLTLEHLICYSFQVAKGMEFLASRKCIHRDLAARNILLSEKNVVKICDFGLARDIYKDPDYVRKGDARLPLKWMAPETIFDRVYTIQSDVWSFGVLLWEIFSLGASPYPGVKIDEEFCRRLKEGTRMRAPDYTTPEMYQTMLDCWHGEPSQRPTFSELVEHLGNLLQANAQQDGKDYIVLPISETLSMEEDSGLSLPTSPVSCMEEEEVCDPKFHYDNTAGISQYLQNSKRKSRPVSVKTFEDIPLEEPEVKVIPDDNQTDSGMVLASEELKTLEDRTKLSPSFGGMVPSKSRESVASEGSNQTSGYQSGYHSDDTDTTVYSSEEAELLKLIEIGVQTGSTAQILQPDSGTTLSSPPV
# Chain of Met (phospho-Met, HGF-stimulated PC-3 prostate cancer cells) (P08581 25-1390): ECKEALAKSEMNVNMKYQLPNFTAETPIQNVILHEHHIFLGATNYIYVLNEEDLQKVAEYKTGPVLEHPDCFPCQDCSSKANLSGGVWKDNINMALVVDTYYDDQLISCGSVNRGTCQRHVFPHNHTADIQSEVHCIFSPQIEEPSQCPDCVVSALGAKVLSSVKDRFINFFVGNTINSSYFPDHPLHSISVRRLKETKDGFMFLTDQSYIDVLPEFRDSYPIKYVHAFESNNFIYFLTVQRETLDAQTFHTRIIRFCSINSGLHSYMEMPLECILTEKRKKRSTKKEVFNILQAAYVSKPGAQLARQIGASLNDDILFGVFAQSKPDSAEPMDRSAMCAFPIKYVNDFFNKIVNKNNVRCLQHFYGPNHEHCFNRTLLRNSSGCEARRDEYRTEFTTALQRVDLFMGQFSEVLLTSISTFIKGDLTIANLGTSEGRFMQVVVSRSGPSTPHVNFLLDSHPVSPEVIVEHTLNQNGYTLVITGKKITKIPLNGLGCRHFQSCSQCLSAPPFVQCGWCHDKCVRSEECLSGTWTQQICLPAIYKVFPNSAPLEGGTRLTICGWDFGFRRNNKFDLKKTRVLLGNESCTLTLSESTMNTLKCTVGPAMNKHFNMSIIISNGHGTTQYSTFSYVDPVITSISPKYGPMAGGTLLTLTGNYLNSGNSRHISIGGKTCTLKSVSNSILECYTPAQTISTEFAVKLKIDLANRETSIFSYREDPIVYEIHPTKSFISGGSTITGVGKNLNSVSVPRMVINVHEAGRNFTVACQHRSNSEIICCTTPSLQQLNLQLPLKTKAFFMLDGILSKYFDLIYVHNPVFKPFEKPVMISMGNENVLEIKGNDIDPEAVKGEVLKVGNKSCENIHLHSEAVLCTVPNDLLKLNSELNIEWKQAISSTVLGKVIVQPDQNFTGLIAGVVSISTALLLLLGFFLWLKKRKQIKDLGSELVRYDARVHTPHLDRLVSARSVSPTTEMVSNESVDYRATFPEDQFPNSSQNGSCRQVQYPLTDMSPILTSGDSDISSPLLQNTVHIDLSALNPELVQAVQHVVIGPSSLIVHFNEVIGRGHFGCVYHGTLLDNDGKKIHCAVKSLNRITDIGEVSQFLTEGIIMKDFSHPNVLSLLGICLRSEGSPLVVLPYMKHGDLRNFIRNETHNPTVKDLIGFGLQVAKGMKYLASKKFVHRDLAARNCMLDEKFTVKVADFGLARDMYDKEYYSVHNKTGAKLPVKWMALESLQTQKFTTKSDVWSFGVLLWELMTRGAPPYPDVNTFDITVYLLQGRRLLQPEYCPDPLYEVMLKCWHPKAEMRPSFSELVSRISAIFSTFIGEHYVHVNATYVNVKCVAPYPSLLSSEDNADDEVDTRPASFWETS
Structure (SMILES),IC50 [1] [nM],"IC50 [2, 4] [nM]","IC50 [3, 5] [nM]",IC50 ([2]; transfected 293A cells) [nM],IC50 ([3]; PC-3 cells) [nM]
"COc1cnc2c(Oc3ccc(NC(=O)c4cnc(C)c(-c5ccc(C(C)C)cc5)c4O)cc3F)ccnc2c1 [Compound 705, N-[3-fluoro-4-[(7-methoxy-1,5-naphthyridin-4-yl)oxy]phenyl]-4-hydroxy-6-methyl-5-(4-propan-2-ylphenyl)pyridine-3-carboxamide]",> 300,< 100,< 100,,
"COc1cnc2c(Oc3ccc(NC(=O)c4cnc(C)c(-c5ccc(F)c(F)c5)c4O)cc3F)ccnc2c1 [Compound 706, 5-(3,4-difluorophenyl)-N-[3-fluoro-4-[(7-methoxy-1,5-naphthyridin-4-yl)oxy]phenyl]-4-hydroxy-6-methylpyridine-3-carboxamide]",< 100,< 100,< 100,,
"COc1cnc2c(Oc3ccc(NC(=O)c4cnc(C)c(-c5ccc(F)cc5OC)c4O)cc3F)ccnc2c1 [Compound 707, N-[3-fluoro-4-[(7-methoxy-1,5-naphthyridin-4-yl)oxy]phenyl]-5-(4-fluoro-2-methoxyphenyl)-4-hydroxy-6-methylpyridine-3-carboxamide]",< 100,< 100,< 100,,
"COc1cc2nccc(Oc3ccc(NC(=O)c4c(C)nc(C)c(-c5ccc(F)c(F)c5)c4O)cc3F)c2nc1OC [Compound 708, 5-(3,4-difluorophenyl)-N-[4-[(6,7-dimethoxy-1,5-naphthyridin-4-yl)oxy]-3-fluorophenyl]-4-hydroxy-2,6-dimethylpyridine-3-carboxamide]",< 100,< 100,< 100,,
"COc1cc(-c2c(C)nc(C)c(C(=O)Nc3ccc(Oc4ccnc5cc(OC)c(OC)nc45)c(F)c3)c2O)ccc1F [Compound 709, N-[4-[(6,7-dimethoxy-1,5-naphthyridin-4-yl)oxy]-3-fluorophenyl]-5-(4-fluoro-3-methoxyphenyl)-4-hydroxy-2,6-dimethylpyridine-3-carboxamide]",< 100,< 100,< 100,,
"COc1cc2nccc(Oc3ccc(NC(=O)c4c(C)nc(C)c(-c5ccc(F)c(C)c5)c4O)cc3F)c2nc1OC [Compound 710, N-[4-[(6,7-dimethoxy-1,5-naphthyridin-4-yl)oxy]-3-fluorophenyl]-5-(4-fluoro-3-methylphenyl)-4-hydroxy-2,6-dimethylpyridine-3-carboxamide]",< 100,< 100,< 100,,
"COc1cc2nccc(Oc3ccc(NC(=O)c4c(C)nc(C)c(-c5ccc(C(C)C)cc5)c4O)cc3F)c2nc1OC [Compound 711, N-[4-[(6,7-dimethoxy-1,5-naphthyridin-4-yl)oxy]-3-fluorophenyl]-4-hydroxy-2,6-dimethyl-5-(4-propan-2-ylphenyl)pyridine-3-carboxamide]",< 100,< 100,< 100,,
"COc1ccc(-c2c(C)nc(C)c(C(=O)Nc3ccc(Oc4ccnc5cc(OC)c(OC)nc45)c(F)c3)c2O)cc1C [Compound 712, N-[4-[(6,7-dimethoxy-1,5-naphthyridin-4-yl)oxy]-3-fluorophenyl]-4-hydroxy-5-(4-methoxy-3-methylphenyl)-2,6-dimethylpyridine-3-carboxamide]",< 100,< 100,< 100,,
"COc1ccc(-c2c(C)nc(C)c(C(=O)Nc3ccc(Oc4ccnc5cc(OC)c(OC)nc45)c(F)c3)c2O)c(OC)c1 [Compound 713, N-[4-[(6,7-dimethoxy-1,5-naphthyridin-4-yl)oxy]-3-fluorophenyl]-5-(2,4-dimethoxyphenyl)-4-hydroxy-2,6-dimethylpyridine-3-carboxamide]",,< 100,< 100,,
"COc1cc2c(Oc3ccc(NC(=O)c4nc(C)c(C)n(-c5ccc(F)cc5)c4=O)cc3F)ccnc2cn1 [Compound 714, N-[3-fluoro-4-[(6-methoxy-1,7-naphthyridin-4-yl)oxy]phenyl]-4-(4-fluorophenyl)-5,6-dimethyl-3-oxopyrazine-2-carboxamide]",,< 100,< 100,,
"CCOc1ccn(-c2ccc(F)cc2)c(=O)c1C(=O)Nc1ccc(Oc2ccnc3cc(OC)c(OC)nc23)c(F)c1 [Compound 715, N-[4-[(6,7-dimethoxy-1,5-naphthyridin-4-yl)oxy]-3-fluorophenyl]-4-ethoxy-1-(4-fluorophenyl)-2-oxopyridine-3-carboxamide]",< 100,< 100,< 100,,
"CCOc1ccn(-c2ccc(F)cc2)c(=O)c1C(=O)Nc1ccc(Oc2ccnc3cc(OC)cnc23)c(F)c1 [Compound 716, 4-ethoxy-N-[3-fluoro-4-[(7-methoxy-1,5-naphthyridin-4-yl)oxy]phenyl]-1-(4-fluorophenyl)-2-oxopyridine-3-carboxamide]",> 300,< 100,< 100,,
"CCOc1ccn(-c2ccc(F)cc2)c(=O)c1C(=O)Nc1ccc(Oc2ccnc3cc(OC)cnc23)cc1 [Compound 717, 4-ethoxy-1-(4-fluorophenyl)-N-[4-[(7-methoxy-1,5-naphthyridin-4-yl)oxy]phenyl]-2-oxopyridine-3-carboxamide]",> 300,< 100,< 100,,
"CCOc1ccn(-c2ccc(F)cc2)c(=O)c1C(=O)Nc1ccc(Oc2ccnc3cc(OC)c(OC)nc23)cc1 [Compound 718, N-[4-[(6,7-dimethoxy-1,5-naphthyridin-4-yl)oxy]phenyl]-4-ethoxy-1-(4-fluorophenyl)-2-oxopyridine-3-carboxamide]",100 to 300,< 100,< 100,,
"COc1cc2nccc(Oc3ccc(NC(=O)c4c(C)n(CC(F)(F)F)cc(-c5ccc(F)cc5C)c4=O)cc3F)c2nc1OC [Compound 802, N-[4-[(6,7-dimethoxy-1,5-naphthyridin-4-yl)oxy]-3-fluorophenyl]-5-(4-fluoro-2-methylphenyl)-2-methyl-4-oxo-1 (2,2,2-trifluoroethyl)pyridine-3-carboxamide]",,,,< 100,< 100
